Values after ≈ are worked out from the molar mass of the structure shown.
Legend:
Assay type in all cases: functional
Escherichia coli [1] = assay: Antimicrobial activity against Escherichia coli 0-111 after 2 days; details: 48 h
Klebsiella pneumoniae = assay: Antimicrobial activity against Klebsiella pneumoniae DA after 2 days; details: 48 h
Candida albicans = assay: Antimicrobial activity against Candida albicans TA
Escherichia coli [2] = assay: Antimicrobial activity against Escherichia coli NIHJ JC-2 after 2 days; details: 48 h

CN1[C@@H]([C@@H]2SSC[C@@H]2O)CC[C@@H]1[C@@H]1SSC[C@@H]1O [GERRARDINE]
MIC (Escherichia coli [1]): 100 µg/mL (≈ 307 µM)
MIC (Klebsiella pneumoniae): 100 µg/mL (≈ 307 µM)
MIC (Candida albicans): 50 µg/mL (≈ 154 µM)
MIC (Escherichia coli [2]): 100 µg/mL (≈ 307 µM)

— ChEMBL document CHEMBL1151622, “Occurrence of gerrardine in Cassipourea guianensis” (1984)
